# Experimental data reported in patent US5106857A, “N-(1-methyl-3-pyrrolidinyl)-1-(phenylmethyl)-1H-benzimidazol-2-amine and analogs as antiarrhythmic and muscle relaxing agents” (A. H. Robins Company, Incorporated, priority 1991, dated 1992).
# Key:
# [1] = test system: cardiac arrhythmias (coronary artery occlusion); experiment: Coronary artery ligation induced arrhythmias (conscious dogs); type: in vivo, dog (adult mongrel); settings: for Antiarrhythmic Activity: Number of dogs in which drug is considered active/number treated: active = normal sinus rhythm within 2 hours
# Method: Cardiac arrhythmias in dogs are induced by surgically restricting blood flow in a coronary artery. The test compound is administered intravenously and the heart rate and number and percentage of ectopic beats recorded at 15 minute intervals.
# Adult mongrel dogs which are in the conscious state were used for the test and cardiac arrhythmias were induced by prior (22-24 hr) surgical preparation in which blood flow through a coronary artery was occluded by use of a constrictor device as reported by Smith et al, 1973. A Grass Model 79 Polygraph was used for recording the electrocardiogram (Grass 7P4 Preamplifier).
# The test compound was administered by infusion (Harvard Model 942 Infusion Pump) into a saphenous vein to the test group of dogs at a rate of 0.5 mg/kg/min. Concentration of compound was adjusted according to the weight of the dog to allow a volume of infusion of 0.5 ml/min. Following the administration of the test compound, the heart rate, number of ectopic beats (ectopic beats/HR×1000) were recorded at 15 min intervals. The compound was considered active if it abolished the ectopic ventricular frequency and caused a return to normal sinus rhythm within 2 hours of administration. Cardiac arrhythmias produced by modification of method of Harris, 1950, Circulation 1, 1318, as reported by Smith et al, 1973, Pharmacologist 15, 192.
# [2] = test system: morphine-induced Straub Tail; experiment: Morphine-induced Straub Tail in Mice Test (muscle relaxant); type: in vivo; settings: scored 30 min after test compound; for ED50: Mus musculus, 0.5 h, IP, morphine sulfate 60 mg/kg s.c. 15 min later, read-out: Straub Tail Inhibition ED50
# Method: Administration of morphine sulfate to a mouse causes the tail to become elevated perpendicular to the body. […] The test procedure relied on to indicate positive muscle relaxant activity is the morphine-induced Straub Tail in Mice Test described by G. D. Novak in DRUG DEVELOPMENT RESEARCH (1982) 2: 383-386, except 8 animals per group were used per test rather than 10. The test is summarized as follows: The test drug, reference drug, and control articles to be administered are prepared in saline, 0.5% aqueous methylcellulose suspension or other, depending on solubility, in such concentration that the volume administered is 10 ml/kg. The initial screening dose of the test drug is usually 100 mg/kg. Groups of 8 mice are given an IP dose of a compound or vehicle prepared as described above. After 15 min, mice are administered morphine sulfate, 60 mg/kg in saline, subcutaneously. Fifteen minutes after administration of morphine (i.e., 30 min after test compound administration), mice were scored for presence of Straub Tail defined as an elevation of the tail at least 90 degrees from the horizontal. An ED50 value may be determined from at least three logarithmically spaced doses by the method of Litchfield and Wilcoxon (1949), J. PHARMACOL. EXP. THER. 96: 99-113.
compound,measurement,setting,value
"CCN1CCC(Nc2nc3ccccc3n2CC)C1 (stereo not shown) [Compound 1, 1-Ethyl-N-(1-ethyl-3-pyrrolidinyl)-1H-benzimidazol-2-amine]",Antiarrhythmic Activity: Number of dogs in which drug is considered active/number treated,[1]; dose 5 mg/kg IV,1/2
same,ED50,[2],36 mg/kg
"CCn1c(NC2CCN(C)C2)nc2ccccc21 (stereo not shown) [Compound 2, 1-Ethyl-N-(1-methyl-3-pyrrolidinyl)-1H-benzimidazol-2-amine]",Antiarrhythmic Activity,[1]; dose 7 mg/kg IV,partially active (Reduces ectopic beats from 50-99%)
"CN1CCC(Nc2nc3ccccc3n2Cc2ccccc2)C1 (stereo not shown) [Compound 3, N-(1-Methyl-3-pyrrolidinyl)-1-(phenylmethyl)-1H-benzimidazol-2-amine]",Antiarrhythmic Activity: Number of dogs in which drug is considered active/number treated,[1]; dose 7 mg/kg IV,7/8
same,ED50,[2],21 mg/kg
"CN1CCC(Nc2nc3ccccc3n2Cc2ccccc2)CC1 [Compound 4, N-(1-Methyl-4-piperidinyl)-1-(phenylmethyl)-1H-benzimidazol-2-amine]",Antiarrhythmic Activity: Number of dogs in which drug is considered active/number treated,[1]; dose 9 mg/kg IV,2/6
same,Straub Tail Inhibition %,[2]; dose 100 mg/kg IP,-25%
